# Measured values published in patent US7498336B2, “Deazaflavin compounds and methods of use thereof” (The United States of America as represented by the …, priority 2003, dated 2009).
# Key:
# [1] = target: T1, p53 pre-bound to GST-MDM2 (Homo sapiens, UniProt Q00987); assay: In vitro p53 ubiquitination assay; type: biochemical; conditions: cellular p53 pre-bound to GST-MDM2, FIG. 2G
# T1 construct: made in house; host or cells: GST-MDM2: bacteria; p53: SaOS-p53 inducible cells
# Description: d. In Vitro R53 Ubiguitination Assay
# p53 protein from SaOS-p53 inducible cell lysate was purified from cells using GST-MDM2 (5 pmol) pre-bound to GS beads. Samples were then incubated with test compounds as above. Subsequently 2 μl rabbit E1, 1 μl UbcH5b, and 10 μg of ubiquitin were added. After reaction for 15 min at 23° C., samples were subject to SDS-PAGE under reducing conditions, transferred to nitrocellulose membranes and immunoblotted with anti-p53 (DO-1) followed by ECL using standard techniques.
# rabbit E1 = target: T2, rabbit E1 (Oryctolagus cuniculus, UniProt Q29504); assay: E1 only assay (thiol-ester linkage of ubiquitin with E1); type: biochemical; conditions: FIG. 2D
# T2 construct: purchased Calbiochem 6620700
# T2 sequence (Q29504 1-1058): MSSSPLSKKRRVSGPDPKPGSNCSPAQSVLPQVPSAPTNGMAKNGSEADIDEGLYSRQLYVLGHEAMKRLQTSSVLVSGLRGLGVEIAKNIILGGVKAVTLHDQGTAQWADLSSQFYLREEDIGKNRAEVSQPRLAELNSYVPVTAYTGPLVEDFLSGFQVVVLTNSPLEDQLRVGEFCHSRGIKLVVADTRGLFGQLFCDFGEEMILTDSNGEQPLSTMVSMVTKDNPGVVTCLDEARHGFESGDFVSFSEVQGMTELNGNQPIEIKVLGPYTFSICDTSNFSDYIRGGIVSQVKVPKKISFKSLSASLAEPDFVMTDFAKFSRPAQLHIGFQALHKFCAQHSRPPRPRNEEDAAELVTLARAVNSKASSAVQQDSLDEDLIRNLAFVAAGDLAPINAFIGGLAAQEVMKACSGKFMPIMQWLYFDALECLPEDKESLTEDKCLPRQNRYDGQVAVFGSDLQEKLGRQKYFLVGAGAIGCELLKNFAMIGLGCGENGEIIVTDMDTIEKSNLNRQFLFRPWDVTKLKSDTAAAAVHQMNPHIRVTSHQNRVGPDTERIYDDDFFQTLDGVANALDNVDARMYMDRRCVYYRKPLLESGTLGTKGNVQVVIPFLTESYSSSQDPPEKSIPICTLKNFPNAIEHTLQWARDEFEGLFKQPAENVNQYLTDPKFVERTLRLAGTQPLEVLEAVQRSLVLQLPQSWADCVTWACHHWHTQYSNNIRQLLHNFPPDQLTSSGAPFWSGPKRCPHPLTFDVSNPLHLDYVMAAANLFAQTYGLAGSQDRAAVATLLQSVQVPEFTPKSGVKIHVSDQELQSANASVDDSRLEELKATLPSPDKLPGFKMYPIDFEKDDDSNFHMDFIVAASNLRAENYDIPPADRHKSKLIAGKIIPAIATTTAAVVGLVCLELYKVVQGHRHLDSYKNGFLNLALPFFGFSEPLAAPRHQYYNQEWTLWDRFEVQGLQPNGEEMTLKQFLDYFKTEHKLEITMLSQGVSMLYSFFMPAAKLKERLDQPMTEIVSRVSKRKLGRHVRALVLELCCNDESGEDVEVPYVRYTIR
# Description: 2 μl rabbit E1 +12 μl of 1× reaction buffer are mixed together with the test compound followed by addition of 1 μl of ^32P Ub is added for 10 minutes at room temperature followed by resolution by SDS-PAGE under non-reducing conditions to maintain thiol-ester linkages and exposure as above.
# [2] = system: Normal human fibroblast MRC-5; assay: Cell based assay for accumulation of MDM2 and p53 (immunoblot); conditions: MRC-5 cells, 50 μM, 8 hours
# Description: Methods: Normal human fibroblast MRC-5 were chosen to determine whether the compounds from the high throughput screening can inhibit the E3 activity of Mdm2, i.e. stabilizing MDM2 and p53 in vivo. After being seeded in 12-well tissue culture cluster overnight, the cells were treated with 50 μM of the compounds for 8 hours. They were harvested with trypsin-EDTA, washed with PBS, and lysed with RIPA buffer. Following removal of insoluble pellet by centrifugation for 20 minutes at 10000 rpm, the lysate was separated on 4-20% gradient SDS-polyacrylamide gel and transferred onto nitrocellulose membrane. The membrane was then blotted with anti-p53 antibody (DO-1), anti-MDM2 antibodies (Ab-1 and Ab-2), anti-p27 (Santa Cruz), anti-Nedd4, and anti-p21Waf1 antibody. After extensive washing with PBS containing 0.5% Triton X-100, it was incubated with HRP-labeled donkey anti-mouse antibody and visualized using enhanced chemiluminescence.
# T1 sequence (Q00987 whole entry): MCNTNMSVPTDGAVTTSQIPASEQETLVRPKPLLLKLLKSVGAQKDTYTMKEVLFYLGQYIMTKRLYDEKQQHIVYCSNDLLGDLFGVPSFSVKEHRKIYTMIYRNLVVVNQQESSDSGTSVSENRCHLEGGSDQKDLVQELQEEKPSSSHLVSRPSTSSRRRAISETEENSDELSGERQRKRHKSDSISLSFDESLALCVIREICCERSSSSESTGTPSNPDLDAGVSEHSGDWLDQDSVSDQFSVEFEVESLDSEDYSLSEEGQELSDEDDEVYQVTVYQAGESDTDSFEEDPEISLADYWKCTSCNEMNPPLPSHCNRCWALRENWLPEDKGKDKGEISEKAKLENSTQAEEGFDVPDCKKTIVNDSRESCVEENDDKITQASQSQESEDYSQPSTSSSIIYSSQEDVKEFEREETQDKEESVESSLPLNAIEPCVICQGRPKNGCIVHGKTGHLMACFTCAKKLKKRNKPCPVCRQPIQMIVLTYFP
# T1 sequence (P04637 whole entry partner): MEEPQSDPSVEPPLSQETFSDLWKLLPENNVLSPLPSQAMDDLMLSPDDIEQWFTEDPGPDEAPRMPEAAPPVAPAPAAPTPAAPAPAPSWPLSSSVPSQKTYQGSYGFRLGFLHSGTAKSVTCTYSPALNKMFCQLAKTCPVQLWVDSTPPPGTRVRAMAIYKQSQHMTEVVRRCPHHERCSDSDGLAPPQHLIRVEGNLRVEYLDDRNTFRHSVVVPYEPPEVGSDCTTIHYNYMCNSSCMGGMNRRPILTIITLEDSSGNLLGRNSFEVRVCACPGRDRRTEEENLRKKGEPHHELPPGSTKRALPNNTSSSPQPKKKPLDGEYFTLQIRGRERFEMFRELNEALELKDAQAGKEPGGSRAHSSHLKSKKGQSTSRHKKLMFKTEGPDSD
structure (smiles),measurement,setting,value
"O=c1nc2n(-c3cccc(Cl)c3)c3ccc([N+](=O)[O-])cc3cc-2c(=O)[nH]1 [Compound 98C07, 10-(-3-chloro-phenyl)-7-nitro-10H-pyrimido[4,5-b]quinoline-2,4-dione]",inhibition of p53 ubiquitination by MDM2,[1],significant dose-dependent inhibition of p53 ubiquitination
same,inhibition of thiol-ester linkage of ubiquitin with E1,rabbit E1,inhibits neither thiol-ester linkages of ubiquitin with E1 nor E2
same,MDM2 level,[2],specifically increase MDM2 and p53
same,p53 level,[2],specifically increase MDM2 and p53
